Here are results for 21 compounds from patent publication US20170107212A1, “NOVEL COMPOUNDS” (Bayer Pharma Aktiengesellschaft, priority 2014, published 2017).

Where a name gives a salt, the structure may show the parent alone. A value given as a limit tells only on which side of the number the result lay.

By IC50 is commonly meant the concentration needed to halve the response being measured. The low end stands for inhibition by little substance, the high end for a need for much substance.

In test [1] the test system is constitutive active colorectal cancer cell (CRC) Wnt pathway, HCT116 TOPFlash. Briefly: Cellular reporter assay, HCT116 Super TopFlash (constitutive active Wnt pathway), luciferase expression. It counts as cell-based. The note with it: HCT116 Super TopFlash reporter cells, 36 hours incubation, dilution series 50 μM to 15 nM. On the procedure: In order to discover and characterize small molecules which inhibit the constitutive active colorectal cancer cell (CRC) Wnt pathway, a cellular reporter assay was employed. The corresponding assay cell was generated by transfection of the colorectal cancer cell line HCT116 (ATCC, #CCL-247) with the Super TopFlash vector (Morin, Science 275, 1997, 1787-1790; Molenaar et al., Cell 86 (3), 1996, 391-399). The HCT116 cell line is cultivated at 37° C. and 5% CO2 in DMEM/F-12 (Life Technologies, #11320-074), supplemented with 2 mM glutamine, 20 mM HEPES, 1.4 mM pyruvate, 0.15% Na-bicarbonate and 10% foetal bovine serum (GIBCO, #10270), this cancer cell line is pathophysiological relevant since it carries a deletion of position S45 in the β-catenin gene, leading to constitutive active Wnt signaling. Stable transfectants were generated by cotransfection with pcDNA3 and selection of stable transfected cells with 1 mg/ml G418.
(§1) In preparation of the assay, the two cell lines were plated 24 hours before at 10000 cells per well of a 384 micro titre plate (MTP) in 30 μL growth medium. Selective inhibitory activity for small molecules on the mutated Wnt pathway was determined after parallel incubation of both (TOP and FOP) HCT116 reporter cell lines with a compound dilution series from 50 μM to 15 nM in steps of 3.16-fold dilutions in CAFTY buffer (130 mM NaCl, 5 mM KCl, 20 mM HEPES, 1 mM MgCl2, 5 mM NaHCO3, pH 7.4) containing 2 mM Ca^2+ and 0.01% BSA. The compounds were thereby serially prediluted in 100% DMSO and thereafter in addition 50 fold into the CAFTY compound dilution buffer (described above). From this dilution 10 μL were added to the cells in 30 μL growth medium and incubated for 36 hours at 37° C. and 5% CO2. Thereafter luciferase assay buffer (1:1 mixture of luciferase substrate buffer (20 mM Tricine, 2.67 mM MgSO4, 0.1 mM EDTA, 4 mM DTT, 270 μM Coenzyme A, 470 μM Luciferin, 530 μM ATP, ph adjusted to pH 7.8 with a sufficient volume of 5M NaOH) and Triton buffer (30 mL Triton X-100, 115 mL glycerol, 308 mg Dithiothreitol, 4.45 g Na2HPO4.2H2O, 3.03 g TRIS HCl, ad 1 l H20, pH 7.8) was added as equal volume to the compound solution on the cells to determine luciferase expression as a measure of Wnt signaling activity in a luminometer.

Another test deals with HCT116 FOPFlash. As to the kind of experiment: Control reporter assay, HCT116 FOP control vector (non-functional TCF elements), luciferase expression. It is filed as cell-based. To be noted: HCT116 FOP control reporter cells, 36 hours incubation, dilution series 50 μM to 15 nM. On the procedure: In a parallel approach, HCT116 cells were cotransfected with the FOP control vector and pcDNA3. The FOP vector is identical to the TOP construct, but it contains instead of functional TCF elements a randomized, non-functional sequence. For this transfection a stable transfected cell line was generated as well.
as §1
For orientation: In a reporter assay the amount or activity of a reporter protein is the signal.

With `O=C(CN1CCOCC1)Nc1cc(C(=O)Nc2nnc(-c3cncs3)s2)ccc1OC(F)(F)F` [Example 103, 3-[(morpholin-4-ylacetyl)amino)-N-[5-(1,3-thiazol-5-yl)-1,3,4-thiadiazol-2-yl]-4-(trifluoromethoxy)benzamide], the IC50 was 12.2 µM in test [1] (Homo sapiens, HCT-116, 36 h) and at least 50 µM in the test on HCT116 FOPFlash (Homo sapiens, HCT-116, 36 h).
On to `Cc1cncc(-c2nnc(NC(=O)c3ccc(OC(F)(F)F)c(NC(=O)CN4CCOCC4)c3)s2)n1` [Example 48, N-[5-(6-methylpyrazin-2-yl)-1,3,4-thiadiazol-2-yl]-3-[(morpholin-4-ylacetyl)amino]-4-(trifluoromethoxy)benzamide], for which the IC50 in test [1] (Homo sapiens, HCT-116, 36 h) is 0.663 µM; in the test with HCT116 FOPFlash (Homo sapiens, HCT-116, 36 h) it was at least 50 µM.
Consider `CN1CCN(CC(=O)Nc2cc(C(=O)Nc3nnc(-c4ccc(N)nc4)s3)ccc2OC(F)(F)F)CC1` [Example 38, N-[5-(6-aminopyridin-3-yl)-1,3,4-thiadiazol-2-yl]-3-{[(4-methylpiperazin-1-yl)acetyl]amino}-4-(trifluoromethoxy)benzamide], for which the 50% inhibitory concentration (IC50) was 0.268 µM in test [1] (Homo sapiens, HCT-116, 36 h) and at least 50 µM in the test on HCT116 FOPFlash (Homo sapiens, HCT-116, 36 h).
The like results for `O=C(CN1CCOCC1)Nc1cc(C(=O)Nc2nnc(-c3cnccn3)s2)ccc1OC(F)(F)F` [Example 88, 3-[(morpholin-4-ylacetyl)amino]-N-[5-(pyrazin-2-yl)-1,3,4-thiadiazol-2-yl]-4-(trifluoromethoxy)benzamide] were, in that order, at least 50 µM and at least 50 µM.
For the compound `CN1CCN(CC(=O)Nc2cc(C(=O)Nc3nnc(-c4ncccc4F)s3)ccc2OC(F)(F)F)CC1` [Example 43, 4-(2-{[5-{[5-(3-fluoropyridin-2-yl)-1,3,4-thiadiazol-2-yl]carbamoyl}-2-(trifluoromethoxy)phenyl]amino}-2-oxoethyl)-1-methylpiperazin-1-ium hexafluorophosphate], the IC50 in test [1] (Homo sapiens, HCT-116) was found to be 2 µM; in the test with HCT116 FOPFlash (Homo sapiens, HCT-116) it was 32 µM.
Take `O=C(CN1CCOCC1)Nc1cc(C(=O)Nc2nnc(-c3cnccc3C(F)(F)F)s2)ccc1OC(F)(F)F` [Example 110, 3-[(morpholin-4-ylacetyl)amino)-4-(trifluoromethoxy)-N-{5-[4 (trifluoromethyl)pyridin-3-yl)-1,3,4-thiadiazol-2-yl}benzamide]: the IC50 was 33 µM in test [1] (Homo sapiens, HCT-116, 36 h) and at least 50 µM in the test on HCT116 FOPFlash (Homo sapiens, HCT-116, 36 h).
The like results for `CN1CCN(CC(=O)Nc2cc(C(=O)Nc3ccc(-c4cncnc4)cn3)ccc2OC(F)(F)F)CC1` [Example 46, 3-{[(4-methylpiperazin-1-yl)acetyl]amino}-N-[5-(pyrimidin-5-yl)pyridin-2-yl]-4-(trifluoromethoxy)benzamide] were, in that order, 0.0183 µM and at least 50 µM.
With `CN1CCN(CC(=O)Nc2cc(C(=O)Nc3nnc(-c4cccnc4)s3)ccc2OC(F)(F)F)CC1` [Example 21, 3-{[(4-methylpiperazin-1-yl)acetyl]amino}-N-[5-(pyridin-3-yl)-1,3,4-thiadiazol-2-yl]-4-(trifluoromethoxy)benzamide], the IC50 in test [1] is 0.315 µM; in the test with HCT116 FOPFlash, at least 50 µM.
In the case of `CC(C(=O)Nc1cc(C(=O)Nc2ccc(-c3cccnc3F)nc2)ccc1OC(F)(F)F)N1CCOCC1` (stereo not drawn) [Example 5, N-(2′-fluoro-2,3′-bipyridin-5-yl)-3-{[2-(morpholin-4-yl)propanoyl]amino}-4-(trifluoromethoxy)benzamide], the IC50 in test [1] (Homo sapiens, HCT-116, 36 h) is 0.0165 µM; in the test on HCT116 FOPFlash (Homo sapiens, HCT-116, 36 h), at least 50 µM.
The like results for `CC(C(=O)Nc1cc(C(=O)Nc2ccc(-c3cnc(N)nc3)nc2)ccc1OC(F)(F)F)N1CCOCC1` (stereo not drawn) [Example 6] were, in that order, 0.019 µM and at least 50 µM.
Taken in the same sequence, the figures for `CN1CCN(CC(=O)Nc2cc(C(=O)Nc3nnc(-c4cccnc4)s3)ccc2OC(F)(F)F)CC1` [Example 20, 3-{[(4-methylpiperazin-1-yl)acetyl]amino}-N-[5-(pyridin-3-yl)-1,3,4-thiadiazol-2-yl]-4-(trifluoromethoxy)benzamide hydrochloride] were 0.167 µM and 40 µM.
With `Cc1ccncc1-c1nnc(NC(=O)c2ccc(OC(F)(F)F)c(NC(=O)CN3CCN(C)CC3)c2)s1` [Example 37, 3-{[(4-methylpiperazin-1-yl)acetyl]amino}-N-[5-(4-methylpyridin-3-yl)-1,3,4-thiadiazol-2-yl]-4-(trifluoromethoxy)benzamide], the IC50 was 0.61 µM in test [1] and at least 50 µM in the test with HCT116 FOPFlash.
As for `Cc1ncc(-c2nnc(NC(=O)c3ccc(OC(F)(F)F)c(NC(=O)CN4CCOCC4)c3)s2)s1` [Example 100, N-[5-(2-methyl-1,3-thiazol-5-yl)-1,3,4-thiadiazol-2-yl]-3-[(morpholin-4-ylacetyl)amino]-4-(trifluoromethoxy)benzamide], the IC50 was 41 µM in test [1] (Homo sapiens, HCT-116, 36 h) and at least 50 µM in the test with HCT116 FOPFlash (Homo sapiens, HCT-116, 36 h).
`O=C(CN1CCN(C2CC2)CC1)Nc1cc(C(=O)Nc2nnc(-c3cccnc3)s2)ccc1Cl` [Example 86, 4-chloro-3-{[(4-cyclopropylpiperazin-1-yl)acetyl]amino}-N-[5-(pyridin-3-yl)-1,3,4-thiadiazol-2-yl]benzamide]: the IC50 in test [1] (Homo sapiens, HCT-116, 36 h) was 44 µM; in the test on HCT116 FOPFlash (Homo sapiens, HCT-116, 36 h), at least 50 µM.
The like results for `Cc1ccncc1-c1nnc(NC(=O)c2ccc(OC(F)(F)F)c(NC(=O)CN3CCOCC3)c2)s1` [Example 71, N-[5-(4-methylpyridin-3-yl)-1,3,4-thiadiazol-2-yl]-3-[(morpholin-4-ylacetyl)amino]-4-(trifluoromethoxy)benzamide] were, in that order, 4.66 µM and at least 50 µM.
Consider `CN1CCN(CC(=O)Nc2cc(C(=O)Nc3nnc(-c4nccs4)s3)ccc2OC(F)(F)F)CC1` [Example 45, 1-methyl-4-(2-oxo-2-{[5-{[5-(1,3-thiazol-2-yl)-1,3,4-thiadiazol-2-yl]carbamoyl}-2-(trifluoromethoxy)phenyl]amino}ethyl)piperazin-1-ium hexafluorophosphate], for which the IC50 in test [1] (Homo sapiens, HCT-116) was 1.48 µM; with HCT116 FOPFlash (Homo sapiens, HCT-116) it was 45 µM.
On to `CN1CCN(CC(=O)Nc2cc(C(=O)Nc3nnc(-c4cncc(C(F)(F)F)c4)s3)ccc2OC(F)(F)F)CC1` [Example 57, 3-{[(4-methylpiperazin-1-yl)acetyl]amino}-4-(trifluoromethoxy)-N-{5-[5-(trifluoromethyl)pyridin-3-yl]-1,3,4-thiadiazol-2-yl}benzamide], for which the 50% inhibitory concentration (IC50) in test [1] (Homo sapiens, HCT-116, 36 h) is 0.24 µM; with HCT116 FOPFlash (Homo sapiens, HCT-116, 36 h), at least 50 µM.
The like results for `Cc1ccncc1-c1nnc(NC(=O)c2ccc(OC3COC3)c(NC(=O)CN3CCOCC3)c2)s1` [Example 79, N-[5-(4-methylpyridin-3-yl)-1,3,4-thiadiazol-2-yl]-3-[(morpholin-4-ylacetyl)amino]-4-(oxetan-3-yloxy)benzamide] were, in that order, 0.24 µM and at least 50 µM.
Taken in the same sequence, the figures for `CN1CCN(CC(=O)Nc2cc(C(=O)Nc3cnc(-c4cccnc4F)cn3)ccc2OC(F)(F)F)CC1` [Example 51] were 0.079 µM and at least 50 µM.
Take `CN1CCN(CC(=O)Nc2cc(C(=O)Nc3nnc(-c4cccnc4)s3)ccc2OCC(F)(F)F)CC1` [Example 50, 3-{[(4-methylpiperazin-1-yl)acetyl]amino}-N-[5-(pyridin-3-yl)-1,3,4-thiadiazol-2-yl]-4-(2,2,2-trifluoroethoxy)benzamide hydrochloride (1:1)]: the IC50 is 0.293 µM in test [1] (Homo sapiens, HCT-116, 36 h) and 20.5 µM in the test on HCT116 FOPFlash (Homo sapiens, HCT-116, 36 h).
For the compound `CN1CCN(CC(=O)Nc2cc(C(=O)Nc3nnc(-c4cnc(N)s4)s3)ccc2OC(F)(F)F)CC1` [Example 66, N-[5-(2-amino-1,3-thiazol-5-yl)-1,3,4-thiadiazol-2-yl]-3-{[(4-methylpiperazin-1-yl)acetyl]amino}-4-(trifluoromethoxy)benzamide], the IC50 was 1.47 µM in test [1] (Homo sapiens, HCT-116, 36 h) and at least 50 µM in the test on HCT116 FOPFlash (Homo sapiens, HCT-116, 36 h).
